Source: paper PMC11320730, “5-Methoxy-2-aminoindane Reverses Diet-Induced Obesity and Improves Metabolic Parameters in Mice: A Potential New Class of Antiobesity Therapeutics” (ACS Pharmacology & Translational Science, 2024)

Key:
C57Bl/6 mice [1] = test: Acute effect of MEAI on food and water intake and metabolic parameters (Promethion); assay type: in vivo; settings: lean male mice, vs vehicle
Method: (§1) Male 6-week-old C57Bl/6 mice (Harlan, Israel) were maintained in standard conditions under a 12 h light/dark cycle and fed ad libitum. A total of 32 animals were divided into four experimental groups (N = 8 mice per group) receiving single doses of 40, 60, or 100 mg/kg of MEAI or vehicle (sterile water), which was administered via oral gavage 2 h prior to the dark phase. The animals were monitored for 48 h postdose for drug tolerability, food and water intakes, and activity and metabolic parameters. At the end of the experiment, the animals were euthanized, and tissues (brain, liver, fat, and kidney) and blood were collected and stored in a frozen state for future analyses.
The metabolic profiles and food and water intakes of the mice were assessed using the Promethion High-Definition Behavioral Phenotyping System (Sable Instruments, Inc., Las Vegas, Nevada, USA). MetaScreen software version 2.2.18.0 was used for data acquisition and instrument control. Raw data were processed using ExpeData version 1.8.4 with an analysis script detailing all aspects of the data transformation. Mice with free access to food and water, housed at temperatures of (22–23 °C), were subjected to a standard 12 h light/12 h dark cycle, which consisted of a 48 h acclimation period followed by 24 h of sampling after dosing. Respiratory gases were measured using the GA-3 gas analyzer (Sable Systems, Inc., Las Vegas, Nevada, USA) employing a pull-mode negative-pressure system. Airflow was measured and controlled by an FR-8 instrument (Sable Systems, Inc., Las Vegas, Nevada, USA) at a flow rate of 2000 mL/min. Water vapor was continuously measured, and its dilution effect on O2 and CO2 was mathematically compensated. Respiratory exchange rate (RER) was calculated as the ratio of CO2 produced (VCO2) to O2 consumed (VO2) using eq 1): [drawing 1] 1
Total energy expenditure (TEE) was calculated using VO2 and RER, according to eq 2: [drawing 2] 2
Fat oxidation (FO) and carbohydrate oxidation (CHO) were calculated using VO2 and VCO2 based on eqs 3 and 4, respectively: [drawing 3] 3 [drawing 4] 4
Energy balance and energy flux were derived from eqs 5 and 6: [drawing 5] 5 [drawing 6] 6

C57Bl/6 mice [2] = test: Acute effect of MEAI on wheel running and locomotor activity; assay type: in vivo; settings: lean male mice, vs vehicle
Method: as §1
The activity energy expenditure was calculated based on eq 7: [drawing 7] 7
The assessment of wheel running and locomotor activity was performed by using the Promethion High-Definition Behavioral Phenotyping System (Sable Instruments, Inc., Las Vegas, Nevada, USA). Wheel revolutions were measured with a monitor that recorded voluntary wheel running activity, and locomotor activity was quantified using disruptions of infrared XYZ beam arrays with a beam spacing of 0.25 cm. Pedestrian locomotion represented the sum of all directed ambulatory locomotion within the beam break system, using a speed cutoff of 1 cm/s. Total distance represented the sum of all distances traveled within the beam break system, not including any distance run on the wheel in meters (m); this included fine movements (such as grooming and scratching).

C57Bl/6 mice [3] = test: Sucrose preference test; assay type: in vivo; settings: 40 mg/kg, single dose
Method: Thirteen-week-old male C57BL/6 mice, maintained on a STD and housed individually, were habituated to two water bottles in their home cage for 48 h prior to the test. Baseline intake was measured by weighing the bottles. On the test day (day 1), 2 h before the onset of the dark phase, fresh water and a 1.5% sucrose solution were added to the bottles and mice were subsequently treated orally with MEAI (40 mg/kg, N = 8) or sterile water (N = 8). The mice were allowed to freely drink from either bottle for 24 h, after which the bottles were weighed to measure consumption. The study was repeated for an additional day (day 2), with the bottles switched in position (in the cage) to account for side preference. The sucrose and water intake over the 2 days were averaged, and the sucrose preference index was calculated as the average consumed sucrose solution divided by the average volume of total consumed liquid (average water plus average sucrose solution).

[4] = test system: liver of DIO C57BL/6 mice; test: Liver weight, hepatic triglyceride and cholesterol contents, histopathology and Oil Red O staining in DIO mice; assay type: in vivo; settings: 40 mg/kg/day
Method: Male C57BL/6 mice were used to establish DIO by feeding them a high-fat diet (HFD; 60% cal/L fat, 20% cal/L protein, and 20% cal/L carbohydrates; Research Diet, D12492) for 18 weeks. After this period, mice were treated with either vehicle (sterile water, N = 8) or MEAI (N = 11) daily for 28 days by gavage at a dose of 40 mg/kg/day. Age-matched control mice (N = 10) on a standard diet (STD; 14% kcal fat, 24% kcal protein, 62% kcal carbohydrates; NIH-31 rodent diet) received vehicle daily. The body weight of all mice was monitored daily, and total body fat and lean mass were determined by EchoMRI-100H (Echo Medical Systems LLC, Houston, Texas, USA). On day 29, at the end of the experimental period, mice were euthanized by a cervical dislocation under anesthesia. The kidneys, brain, liver, and fat pads were removed and weighed, and samples were either snap-frozen or fixed in buffered 4% formalin. Trunk blood was collected to determine the biochemical parameters.
At the time of animal sacrifice, liver tissue was extracted following the established protocol described previously.[19] The extracted liver tissue was then analyzed for cholesterol and triglyceride contents using a Cobas C-111 chemistry analyzer (Roche, Switzerland).
Paraffin-embedded liver sections (5 μm) from five animals per group were processed for hematoxylin–eosin staining. Liver images were captured using a Zeiss Axio Scope A1 light microscope (Carl Zeiss AG, Jena, Germany) equipped with a Zeiss AxioCam ICc 5 color camera. Ten random 40× fields of view were taken from each animal to obtain representative images.
Liver cryosections (8 μm) were stained with Oil Red O (Cat# ab150678; Abcam, Cambridge, UK) following the manufacturer’s protocol. Images were acquired as described above. For quantitative analysis of Oil Red O staining, the area of lipid droplets in the liver cryosections was measured using ImageJ software.

[5] = test system: norepinephrine transporter (NET); design: method as in PMID 30904940; settings: cited from earlier work
[6] = single oral dose 40, 60 or 100 mg/kg
[7] = single oral dose, all doses (40, 60, 100 mg/kg)

With `COc1ccc2c(c1)CC(N)C2.Cl` (centres unmarked) [MEAI, 2,3-Dihydro-5-methoxy-1H-inden-2-amine hydrochloride] the “hourly average energy expenditure (TEE/h)” value (C57Bl/6 mice [1]; single oral dose 40, 60 or 100 mg/kg, across 24 h) was “significant dose-dependent increase”, the “feeding patterns (food intake)” value (C57Bl/6 mice [1]; single oral dose 40, 60 or 100 mg/kg, dark and light phases) was “did not reach statistical significance” and the water consumption (C57Bl/6 mice [1]; [6]) was “no notable changes”. The “respiratory exchange ratio (RER)” value (C57Bl/6 mice [1]; single oral dose 60 and 100 mg/kg, light phase) was “markedly increased”, the “carbohydrate oxidation (CHO) rate” value (C57Bl/6 mice [1]; single oral dose, higher doses) was “elevations” and the “fat oxidation (FO) rate” value (C57Bl/6 mice [1]; single oral dose, higher doses) was “elevations”. For the same compound, the “total daily TEE” value (C57Bl/6 mice [1]; single oral dose, particularly at 60 mg/kg) was “significant elevation”, the “carbon dioxide production (VCO2)” value (C57Bl/6 mice [1]; single oral dose) was “increases” and the energy balance (C57Bl/6 mice [1]; single oral dose) was “did not lead to immediate changes”. The “oxygen consumption (VO2)” value (C57Bl/6 mice [1]; single oral dose) was “increases”, the pedestrian speed (C57Bl/6 mice [2]; single oral dose 60 mg/kg) was “significant increase” and the “total number of beam breaks (ambulation and fine movements)” value (C57Bl/6 mice [2]; [6]) was “minor alterations”. For the same compound, the “directed voluntary activity (pedestrian locomotion)” value (C57Bl/6 mice [2]; single oral dose, 40 mg/kg and above) was “significant and dose-dependent increase”, the “average distance traveled within the cage” value (C57Bl/6 mice [2]; [7]) was “significant elevations” and the “total distance traveled within the cage” value (C57Bl/6 mice [2]; [7]) was “significant elevations”. For the same compound, the “sum of voluntary wheel running activity” value (C57Bl/6 mice [2]; single oral dose, any dose tested) was “did not significantly affect”, the activity-specific energy expenditure (C57Bl/6 mice [2]; single oral dose) was “modest insignificant rise” and the “preference for sucrose solution” value (C57Bl/6 mice [3]; 1.5% sucrose, most evident during initial 24 h, vs vehicle) was “significantly reduced”. The water intake levels (C57Bl/6 mice [3]; sucrose preference test) was “without any accompanying decrease”, the “Oil Red O staining of liver” value ([4]; DIO mice, vs HFD vehicle) was “decrease” and the hepatic cholesterol levels ([4]; DIO mice, vs HFD vehicle) was “trend toward a reduction”. The “lipid vacuole numbers in liver” value ([4]; DIO mice, vs HFD vehicle) was “reduced”, the liver triglycerides ([4]; DIO mice, vs HFD vehicle) was “significant reductions” and the liver weight ([4]; HFD-fed mice, 28 days) was “reduced”. The “liver weight to body weight ratio” value ([4]; HFD-fed mice, 28 days) was “normalized” and the interaction with transporter [5] was “interacts”.
